Data from patent EP3037527A1, “Sialyltransferase without CMP-dependent sialidase activity” (F. Hoffmann-La Roche AG, priority 2014, dated 2016).

Legend:
[1] = biological target: T1, α-2,6-sialyltransferase from rat liver (Rattus norvegicus, UniProt P13721); details: each inhibitor tested at a concentration of 0.25 mM; cited from earlier work
T1 construct: host or cells: rat liver
T1 sequence (P13721 1-403): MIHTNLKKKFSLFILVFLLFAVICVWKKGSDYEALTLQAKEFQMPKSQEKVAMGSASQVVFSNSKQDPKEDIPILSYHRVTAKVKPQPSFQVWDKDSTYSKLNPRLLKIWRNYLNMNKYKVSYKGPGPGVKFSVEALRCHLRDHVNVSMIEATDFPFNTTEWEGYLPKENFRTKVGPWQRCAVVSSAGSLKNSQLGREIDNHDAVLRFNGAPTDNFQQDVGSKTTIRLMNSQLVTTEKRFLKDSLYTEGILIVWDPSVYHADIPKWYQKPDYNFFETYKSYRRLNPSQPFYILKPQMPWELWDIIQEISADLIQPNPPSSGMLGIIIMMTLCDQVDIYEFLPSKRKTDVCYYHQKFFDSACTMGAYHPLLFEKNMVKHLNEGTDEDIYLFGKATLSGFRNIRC

Δ89 hST6Gal-I = biological target: T2, Δ89 hST6Gal-I (Homo sapiens, UniProt P15907); assay: Inhibition of sialidase activity of Δ89 hST6Gal-I by CTP; assay type: biochemical
T2 construct: Erythropoietin signal peptide (Epo) (N, cleaved yes); AP spacer (two amino acids) (N, cleaved yes); made in house; host or cells: HEK 293 cells (transient expression, secreted)
T2 sequence (P15907 90-406): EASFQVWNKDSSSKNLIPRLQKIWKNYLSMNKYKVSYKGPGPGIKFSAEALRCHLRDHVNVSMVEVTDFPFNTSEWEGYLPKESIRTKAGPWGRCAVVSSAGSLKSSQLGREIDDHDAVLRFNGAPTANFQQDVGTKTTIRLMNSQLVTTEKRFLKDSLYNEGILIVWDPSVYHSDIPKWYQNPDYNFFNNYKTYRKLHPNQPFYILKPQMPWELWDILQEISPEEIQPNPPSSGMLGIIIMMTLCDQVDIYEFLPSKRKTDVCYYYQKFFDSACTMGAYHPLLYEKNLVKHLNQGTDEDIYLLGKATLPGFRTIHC
Experimental: A highly galactosylated humanized monoclonal antibody IgG4 MAB was used in sialylation experiments. The reaction mixture contained IgG4 MAB (300 µg in 55 µL 35 mM sodium actetate/Tris buffer pH 7.0), the donor substrate CMP-NANA (150 µg in 50 µL water) and sialyltransferase (30 µg Δ89 hST6Gal-I in 20 mM potassium phosphate, 0.1 M NaCl, pH 6.5). The samples were incubated at 37°C for a defined time. To stop the reaction the samples were frozen at -20°C. For mass analysis 100 µL denaturing buffer (6 M guanidinium chloride) and 30 µL TCEP (= tris(2-carboxyethyl)phosphine; 0.1 mM, diluted in denaturing buffer) were added to the samples and the samples were incubated at 37°C for 1 h. The samples were buffered in electrospray medium [20% ACN (= acetonitrile), 1% FA (= […])] using pre-equilibrated illustra™ Nap5-Columns (GE-Healthcare). Samples were analyzed by electrospray ionization mass spectrometry and the content of G2+0SA, G2+1SA and G2+2SA N-glycans was determined. A Micromass Q-Tof Ultima and a Synapt G2 HDMS device (Waters UK) were used, the software used was MassLynx V 4.1. […]
The compound cytidine-5'-triphosphate (CTP) is a known potent inhibitor of sialyltransferases (Scudder PR & Chantler EN BBA 660 (1981) 136-141). […] At different times samples were taken and the content of G2+0SA, G2+1SA and G2+2SA was determined by mass spectrometry. […]

Structure (SMILES)	inhibition of α-2,6-sialyltransferase [1] [%]	degradation of G2+2SA caused by the sialidase activity (Δ89 hST6Gal-I; CTP 0.67 mM, compared to inhibitor-free conditions)	G2+2SA still present (Δ89 hST6Gal-I; after 72 h of incubation, CTP added after 7 h, final concentration 0.67 mM) [%]
Nc1ccn([C@@H]2O[C@H](CO)[C@@H](O)[C@H]2O)c(=O)n1 [Cytidine]	70		
Nc1ccn([C@@H]2O[C@H](COP(=O)(O)O)[C@@H](O)[C@H]2O)c(=O)n1 [5'-CMP, Cytidine monophosphate]	71		
Nc1ccn([C@@H]2O[C@H](CO)[C@@H](O)[C@H]2OP(=O)(O)O)c(=O)n1 [2'-CMP]	40		
Nc1ccn([C@@H]2O[C@H](CO)[C@@H](OP(=O)(O)O)[C@H]2O)c(=O)n1 [3'-CMP]	39		
Nc1ccn([C@@H]2O[C@H](COP(=O)(O)OP(=O)(O)OP(=O)(O)O)[C@@H](O)[C@H]2O)c(=O)n1 [CTP, cytidine-5'-triphosphate]		significantly reduced	73
